The source of these data is patent US6500669B1, “Programmable genotoxic agents and uses therefor” (Massachusetts Institute of Technology, priority 1994, dated 2002).

Read-outs that look alike come from different tables or passages of the source.

Data set [1] deals with T1, hUBF (Homo sapiens, UniProt P17480).
T1 construct: made in house; host or cells: in vitro transcription and translation (cell-free) from plasmid pTbGUBF1
T1 sequence (P17480 1-764): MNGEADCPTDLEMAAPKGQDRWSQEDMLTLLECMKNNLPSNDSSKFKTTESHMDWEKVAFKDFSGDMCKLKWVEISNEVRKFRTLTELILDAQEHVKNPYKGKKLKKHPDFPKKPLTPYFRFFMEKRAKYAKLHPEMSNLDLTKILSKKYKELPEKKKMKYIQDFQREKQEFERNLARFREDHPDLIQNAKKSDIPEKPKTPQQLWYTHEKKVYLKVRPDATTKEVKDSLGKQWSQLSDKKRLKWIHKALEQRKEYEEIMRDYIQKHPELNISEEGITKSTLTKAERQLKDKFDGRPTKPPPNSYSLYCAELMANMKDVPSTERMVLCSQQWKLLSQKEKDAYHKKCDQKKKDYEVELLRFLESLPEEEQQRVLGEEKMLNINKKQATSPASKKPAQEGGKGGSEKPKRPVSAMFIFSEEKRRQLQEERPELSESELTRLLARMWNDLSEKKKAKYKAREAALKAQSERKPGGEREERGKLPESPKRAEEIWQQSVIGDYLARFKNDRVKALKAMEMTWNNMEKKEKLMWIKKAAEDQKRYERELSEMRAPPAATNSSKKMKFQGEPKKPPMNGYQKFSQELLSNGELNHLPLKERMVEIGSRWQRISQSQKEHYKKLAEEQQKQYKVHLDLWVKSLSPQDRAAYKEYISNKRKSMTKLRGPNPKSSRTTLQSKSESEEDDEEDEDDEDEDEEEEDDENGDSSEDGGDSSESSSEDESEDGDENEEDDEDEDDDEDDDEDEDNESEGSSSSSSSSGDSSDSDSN
Briefly: Southwestern blotting of hUBF with platinated DNA probes. The class given is binding. To be noted: southwestern and western blot; DNA globally modified by the platinum compound. How it is done: Probe Preparation. The DNA probe used for southwestern blotting was a 422 base pair (bp) AvaI restriction fragment excised from M13mp19 replicative form DNA. Platinated probes were prepared by treating the AvaI-digested DNA with cisplatin or trans-DDP, and the formal bound drug/nucleotide ratios (rb) were determined by using atomic absorption spectroscopy as described in Donahue et al. (1990), 29 Biochemistry 5872-5880.
Western and Southwestern Blotting Technique. HeLa whole cell extracts (WCE) were prepared by the sonication procedure of Samson et al. (1986), 83 Proc. Natl. Acad. Sci. U.S.A. 5607-5610. The 97 kDa hUBF species was synthesized by in vitro transcription and translation from the plasmid pTbGUBF1 as reported in Jantzen et al. (1992), 6 Genes & Dev. 1950-1963. In vitro translated hUBF was quantitated by the incorporation of ^35S-methionine. Protein samples ([…] WCE or 8 ng hUBF) were resolved on 5-15% gradient SDS polyacrylamide gels and transferred to nitrocellulose membranes. Parallel blots of HeLa whole cell extracts (WCE) and in vitro translated hUBF (hUBF) were probed with various ^32P labeled DNA fragments (southwestern analysis, panels A-C of FIG. 2) or antiserum against hUBF (Anti-NOR-90) (panel D of FIG. 2). For southwestern analysis, the air dried membranes were processed as reported in Toney et al. (1989), 86 Proc. Natl. Acad. Sci. U.S.A. 8328-8332. […]
A general note: A western blot detects proteins with antibodies after separation by electrophoresis.

Data set [2] concerns MCF-7 and MDA-MB-231 cells. Briefly: Methylene blue dye binding growth assay in breast tumor cell lines. The class given is cell-based, human. The following applies: ED50 = concentration that inhibits cell growth by 50%. The protocol: The toxicities of the preferred 2-phenylindole-C6NC2-mustard and homologous ligand decoy compounds for selected cells distinguished phenotypically from nonselected cells by expression of ER were tested using the human breast tumor cell lines, MCF-7 and MDA-MB-231, according to the guidelines set forth in Example 10 (above). The MCF-7 cell line expresses the estrogen receptor protein, while no ER protein can be detected in the MDA-MB-231 cell line.
Both cell lines were routinely cultured in Minimal Essential Medium (MEM) supplemented with 2 mM gluatamine, 1 mM sodium pyruvate and 10% fetal calf serum. To determine the toxicity of test compounds, cells were trypsinized and plated in 100 μl of media in 96-well microtiter plates at the following densities: MCF-7, 2000 cells/well; MDA-MB-231, 1000 cells/well. Cells were allowed to grow for 24 hours in the 96-well plates prior to treatment with the compounds. […]
Each treatment condition was conducted in replicates of 8 wells. […] On day 4, cell growth in treated and control cultures was determined using the methylene blue dye binding assay.
A dye-binding assay as described by Finlay et al. (1984), 139 Anal. Biochem. 272 was used to assess the cytotoxic effects of 2-phenylindole-C6NC2-mustard and homologous ligand decoy compounds. […] The absorbance of the solubilized dye was read at 620 nm in a Ceres 9000 plate reader (Biotek).

Data set [3] has as its target T2, estrogen receptor (ER) (Bos taurus, UniProt P49884).
T2 construct: uterine cytosol was prepared by homogenizing calf uteri; from tissue; host or cells: calf uterus, cytosol (105,000 g supernatant)
T2 sequence (P49884 1-596): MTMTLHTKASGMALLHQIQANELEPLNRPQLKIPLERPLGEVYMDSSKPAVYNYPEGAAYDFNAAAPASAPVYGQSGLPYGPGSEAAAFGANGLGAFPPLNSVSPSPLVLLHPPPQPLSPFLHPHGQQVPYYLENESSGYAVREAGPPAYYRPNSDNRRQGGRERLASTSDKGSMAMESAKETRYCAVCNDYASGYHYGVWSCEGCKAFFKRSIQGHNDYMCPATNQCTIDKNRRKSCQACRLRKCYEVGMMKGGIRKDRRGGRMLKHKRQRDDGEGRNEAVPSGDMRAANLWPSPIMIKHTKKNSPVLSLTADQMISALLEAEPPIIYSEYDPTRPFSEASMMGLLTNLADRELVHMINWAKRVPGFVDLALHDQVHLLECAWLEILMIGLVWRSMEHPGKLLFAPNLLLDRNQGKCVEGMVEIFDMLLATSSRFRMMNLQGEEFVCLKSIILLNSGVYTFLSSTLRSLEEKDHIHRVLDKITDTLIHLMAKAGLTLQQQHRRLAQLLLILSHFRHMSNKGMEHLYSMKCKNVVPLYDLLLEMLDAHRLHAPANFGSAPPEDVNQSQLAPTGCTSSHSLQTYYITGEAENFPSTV
Briefly: In vitro [3H]E2 competition assay, calf uterine extracts, free compounds. The following applies: free compound. Format: binding.
Protocol: Assays were performed by premixing a range of concentrations of the test compound with a fixed amount of tritium labeled estradiol ([^3H]E2). Calf uterine cytosol was then added. After incubation overnight at 4° C., activated charcoal/dextran was added to remove unbound [^3H]E2. Following centrifugation to remove the charcoal/dextran, levels of bound (i.e., non-competed) [^3H]E2 were determined by liquid scintillation spectrometry. Low concentrations of test compound required to abolish [^3H]E2 binding in this assay indicate a tight association between the test compound and the ER.

Data set [4] addresses T2, estrogen receptor (ER). Format: binding, calf.
The subject of data set [5] is HeLa 36 (ER+) and HeLa 7 (ER-) cells. Briefly: Methylene blue dye binding toxicity assay in HeLa ER transformants.

With `N.N.[Cl][Pt][Cl]` [cisplatin, cis-diamminedichloro-platinum(II)], the “binding of in vitro translated hUBF to drug-modified DNA” value in data set [1] is “bound”.

Regarding `O=C(NCCCc1ccc(N(CCCl)CCCl)cc1)OCCNCCCCCCn1c(-c2ccc(O)cc2)cc2cc(O)ccc21` [2-phenylindole-C6NC2-mustard], in data set [2], the “ED50 in MCF-7 relative to ED50 in MDA-MB-231” value is given as “two- to three-fold lower”. The “affinity for the ER relative to estradiol (E2)” value in data set [3] (calf uterine cytosol) was at most 20 fold. For the same compound, the “affinity for the ER (in words)” value in data set [3] (competition with [3H]E2) is reported as “highest affinity”. In addition, in data set [4], the “affinity of DNA lesions formed by the compound for ER” value is “compete effectively”. The “differential in toxicity between HeLa 36 and HeLa 7” value in data set [5] (4 hr. exposure, 2.5 μM dose) is recorded as “approximately a two-fold differential”. Besides, the “cytotoxicity in HeLa 36 cells relative to HeLa 7 cells” value in data set [5] (4 hr. exposure, 5 μM dose) is reported as “four- to five-fold greater cytotoxicity”. For the same compound, the “effect in HeLa 36 cells relative to HeLa 7 cells” value in data set [5] (4 day exposure) is “selectively toxic and growth inhibitory effect”.

For `O=C(O)CCCc1ccc(N(CCCl)CCCl)cc1` [chlorambucil, reference compound], the “affinity of DNA lesions formed by the compound for ER” value in data set [4] (isolated DNA lesioned with compound, competition with E2) is recorded as “no affinity”.

Take `N.N.[Cl][Pt][Cl]` [trans-DDP, trans-Diamminedichloroplatinum (II)]: the “binding of in vitro translated hUBF to drug-modified DNA” value in data set [1] is “failed to recognize”.
